Columns and labels:
Format in all cases: cell-based, human
PC3 cells = test: Cell proliferation (cell confluence, Incucyte Zoom), AR-null PC cell line PC3; details: 72 hours; DOX 100 ng/mL [184 nM], N-9 200 ng/mL [613 nM]; vs vehicle (DMSO)
Protocol: (§4) Cell confluence was monitored using Incucyte Zoom System and the experiments were done with eight replicates each. […] FIG. 4B: The non-tumorigenic prostate epithelial cell line RWPE1, the AR-null PC cell line PC3, and the CRPC cell lines C4-2B and 22Rv1 were treated for 72 hours with vehicle (DMSO), DOX (100 ng/mL [184 nM]), N-9 (200 ng/mL [613 nM]), or the combination of DOX (100 ng/mL [184 nM]) and N-9 (200 ng/mL [613 nM]). C4-2B and 22Rv1 cells were kept in 10% CSS media. Cell confluence was monitored using the Incucyte Zoom System. […] Cell confluence was monitored using the Incucyte Zoom System.
(§5) FIG. 19: The non-tumorigenic prostate epithelial cell line RWPE1, the AR-null PC cell line PC3, the CRPC cell lines C4-2B and 22Rvl and androgen dependent cell line LNCaP were treated for 72 hours with vehicle (DMSO), DOX (100 ng/mL [184 nM]), N-9 (200 ng/mL [613 nM]), or the combination of DOX (100 ng/mL [184 nM]) and N-9 (200 ng/mL [613 nM]). […] Cell confluence was monitored using the Incucyte Zoom System. […]
(§6) Cell proliferation: For growth assay, cells were plated in 96-well plates at 5,000 cells/well (for RWPE-1), or 7,500 cells/well (for 22Rvl, C4-2B, PC3), in 6-12 replicates. […] The Incucyte Zoom software was used to analyzed and graph the results.

22Rv1 cells = test: Cell proliferation (cell confluence, Incucyte Zoom) and Compusyn combination index, CRPC cell line 22Rv1; details: 72 hours; DOX 100 ng/mL [184 nM], N-9 200 ng/mL [613 nM]; 10% CSS; vs vehicle (DMSO)
Protocol: FIG. 4A: The CRPC cell line 22Rv I was cultured in 2% CSS media and was treated for 72 hours with vehicle (DMSO), doxorubicin (DOX), N9-isopropylolomoucine (N-9), or the combination of DOX and N-9 at different concentrations. Cell confluence was monitored using Incucyte Zoom System and the experiments were done with eight replicates each. The data were analyzed using Compusyn software, and a normalized isobologram was built. […] CI=1 represents additivity, CI<1 synergism, and Cl>1 antagonistic effects. […] Cell confluence was monitored using the Incucyte Zoom System. […] Cell confluence was monitored using the Incucyte Zoom System. […]
as §6
To test whether inhibition of this network decreased CRPC cell proliferation, we used doxoruhicin (DOX), which inhibits TOP2A (Tacar et al., 201.3), and N9-isopropylolomoucine (N-9), which targets CCNB 1/CDK1 (Havlicek et al, 1997). […] The normalized isohologram and combination index (CI) were built and determined using Compusyn software.

C4-2B cells = test: Cell proliferation (cell confluence, Incucyte Zoom), CRPC cell line C4-2B; details: 72 hours; DOX 100 ng/mL [184 nM], N-9 200 ng/mL [613 nM]; 10% CSS; vs vehicle (DMSO)
Protocol: as §4, §5, §6

RWPE-1 cells = test: Cell proliferation (cell confluence, Incucyte Zoom), non-tumorigenic prostate epithelial cell line RWPE-1; details: 72 hours; DOX 100 ng/mL [184 nM], N-9 200 ng/mL [613 nM]; vs vehicle (DMSO)
Protocol: as §4, §5, §6

[1] = tested on: seven gene set (KIF20A, KIF23, TOP2A, CCNB1, CCNB2, BUB1, BUB1b) expression in 22Rv1 cells; test: qPCR expression of the seven gene set after androgen (R1881) stimulation, 22Rv1; details: 22Rv1, R1881 0.1 nM, 16 hours, vs vehicle
Protocol: (§1) LNCaP and 22Rv1 cells were seeded and 24 hours later were rinsed twice with PBS and incubated in serum free media for one hour. The cells were then incubated in media containing vehicle or R1881 (0.1 nM) for 16 hours prior to RNA extraction and qPCR analysis. FKBP5 was used as a positive control. Data represent one or two independent experiments, performed in biological triplicates, showing the mean±s.e.m., and normalized to vehicle control. Significant at a p value, ** p value<0.01, *** p value<0.001.
(§2) RNA isolation and reverse transcriptase quantitative RT-qPCR: Total RNA was collected using Trizol according to the manufacturer's protocol (Life Technologies), and isolated using Direct-zol RNA MiniPrep Plus (Zymo Research, Catalog number R2072). Total RNA was reverse transcribed using a cDNA ReverseTranscription kit (Applied Biosystems, Catalog number 4368814) as per the manufacturer's protocol. TaqMan probes from Applied Biosystems for FKBP5 (Hs01561006 ml), UBE2C (Hs00964100 gl), KIF20A (Hs00993573 ml), KIF23 (Hs00370852 ml), TOP2A (Hs01032137 ml), CCNB1 (Hs01030099 ml), CCNB2 (Hs01084593 gl), BUB1 (Hs01557695 ml), BUBlb (Hs01084828 ml) and GAPDH (Hs02786624 gl) were used.
(§3) Because of the overlapping transcriptomes of full length AR and AR-V7, we examined whether full length AR also regulated the seven gene set.

[2] = tested on: seven gene set (KIF20A, KIF23, TOP2A, CCNB1, CCNB2, BUB1, BUB1b) expression in LNCaP cells; test: qPCR expression of the seven gene set after androgen (R1881) stimulation, LNCaP; details: R1881 0.1 nM, 16 hours, vs vehicle
Protocol: as §1, §2, §3

SMILES	Effect on proliferation of PC3 (PC3 cells)	Effect on proliferation of 22Rv1 (22Rv1 cells)	Effect on proliferation of C4-2B (C4-2B cells)	Effect on proliferation of RWPE-1 (RWPE-1 cells)	Regulation of expression of the seven genes (qPCR) [1]	Regulation of expression of the seven genes (qPCR) [2]
COc1cccc2c1C(=O)c1c(O)c3c(c(O)c1C2=O)C[C@@](O)(C(=O)CO)C[C@@H]3O[C@H]1C[C@H](N)[C@H](O)[C@H](C)O1 [DOX, Doxorubicin]	no significant effect	no significant effect	no significant effect	no significant effect		
CC(C)n1cnc2c(NCc3ccccc3)nc(NCCO)nc21 [N-9, N9-Isopropylolomoucine]	no significant effect	no significant effect	no significant effect	no significant effect		
C[C@]1(O)CC[C@H]2[C@@H]3CCC4=CC(=O)CCC4=C3C=C[C@@]21C [R1881, methyltrienolone]					None of the seven genes are regulated	None of the seven genes are regulated

— patent US11994511B2, “Biomarkers indicative of prostate cancer and treatment thereof” (UNIVERSITY OF MIAMI, priority 2017, dated 2024)
